From patent publication US5863950A, “HIV protease inhibitors” (Agouron Pharmaceuticals, Inc., priority 1994, dated 1999)
In brackets after ≈: the same amount, converted by molar mass. Where two headings read alike, the source gives them in different places.

Key:
[1] = tested on: HIV-1 (CEM cells); assay: Anti-HIV MTT assay, inhibition of HIV-induced cell killing, CEM cells; assay type: cell-based, HIV-1 isolates IIIB and/or RF; conditions: Human immunodeficiency virus 1, CCRF-CEM, 144 h, CEM cell line (first position), 6 days, 37° C., read-out: Viral CEM
Excerpt: (§1) SRI has an established program for the primary antiviral analysis of compounds in microtiter assays which measure the ability of a selected compound to inhibit HIV-induced cell killing. This assay involves the conversion of the tetrazolium dye MTT to a colored formazan product by mitochondrial enzymes in metabolically active cells. This assay system is presently used at SRI to screen over 30,000 compounds per year. Briefly, the assay involves the infection of CEM or MT2 cells in round bottom 96-well plates. The compound of interest is added just prior to infection. Following 6 days of incubation at 37° C. the plates are stained with MTT. The results of the assay are quantitated spectrophotometrically on a Molecular Devices Vmax plate reader. The data is analyzed by linear regression utilizing an in-house software program to calculate antiviral activity. (IC25, IC50, IC95) and toxicity (TC25, TC50, TC95) as well as other values.
(§2) Primary antiviral assays are routinely performed in CEM or MT-2 cells.
(§3) Drugs will be solubilized in the appropriate vehicle such as distilled water or DMSO if necessary. Latex gloves, lab coats and masks are used during all phases of the handling process to prevent exposure to potentially harmful agents. The drug is prepared at the appropriate concentration and stored at -20° C. until used by the screening laboratory. The first dilution of each compound is made in a dilution tube with medium to yield a concentration two-fold that of the highest test concentration. Sterile titer tubes are then used to make serial one half-log dilutions of each compound. Following drug dilution, the diluted compound is added to the appropriate well of a 96-well microtiter plate. Up to 12 dilutions can be assayed conveniently in triplicate on a single plate with all appropriate controls including cell control, virus control, toxicity control, drug color control, medium control and plastic (background) control. When testing includes only six dilutions, two drugs can be assayed on a single microtiter plate. The drugs are added to the plate in a final volume of 100 microliters.
(§4) During the time the drug dilutions are prepared, cells are washed and counted. Viability is monitored by trypan blue dye exclusion and assays are not performed if the viability falls below 90%. Cells are maintained in an exponential growth phase and are split 1:2 on the day prior to assay to assure exponential growth rate.
(§5) For the primary screen, the cell lines utilized are CEM and MT-2. Unless otherwise indicated, the medium used is RPMI 1640 with 10% heat-inactivated fetal calf serum (FBS), glutamine and antibiotics.
(§6) Cells are propagated at 37° C. in an atmosphere of 5% CO2 in air. The virus employed for this work is HIV-1 isolates IIIB and/or RF, which are prepared by an acute infection process.
(§7) Briefly, virus-infected cells are pelleted on a daily basis beginning at three days post-infection until the virus has killed all of the cells in the culture. Reverse transcriptase activity and p24 ELISA are used to identify pools with the greatest amount of virus.
(§8) These 24-hour harvests are pooled, filtered and frozen at -90° C. Prior to use in the assay, the infectious pool of virus is titered on all available cell lines in order to determine the amount of virus required in the antiviral assay.
(§9) In general, pools produced by the acute infection method require the addition of one microliter of infectious virus per well resulting in the screening of drugs at a multiplicity of infection of 0.01. In this manner enough virus is prepared and frozen to complete over one thousand microtiter plates, allowing the testing of up to two thousand compounds from a single stock of infectious virus. The use of a single stock of virus for a long period of testing has very favorable effects on the repeatability of the assay systems.
(§10) Virus infection of the CEM and MT-2 cells for the antiviral assay is carried out in a bulk infection process. […]

[2] = tested on: HIV-1 (MT-2 cells); assay: Anti-HIV MTT assay, inhibition of HIV-induced cell killing, MT-2 cells; assay type: cell-based, HIV-1 isolates IIIB and/or RF; conditions: Human immunodeficiency virus 1, MT2, 144 h; MT-2 cells (second position), 6 days, 37° C., MTT; read-out: Viral MT-2
Excerpt: as §1, §2, §3, §4, §5, §6, §7, §8, §9, §10

[3] = target: T1, HIV-1 protease (Human immunodeficiency virus type 1 group M subtype B, UniProt P04585); assay: biochemical; assay type: biochemical
T1 construct: purified HIV-1 protease
Experimental: 1. Proteolytic activity of purified HIV-1 protease was routinely measured using the chromogenic assay developed by Richards et al. (J. Biol. Chem. 265: 7733 (1990)). Synthetic peptide His-Lys-Ala-Arg-Val-Leu-Phe (pNO2)-Glu-Ala-Nle-Ser-NH2 (American Peptide Company) was used as the substrate.
2. The assay was carried out in 0.5M NaCl, 50 mM MES pH 5.6, 2% DMSO (dimethylsulfoxide) at 37° C. Cleavage of the scissile bond between leucine and paranitro-phenylalanine (Phe(pNO2)) was assayed by spectrophotometric monitoring of the decrease in absorbance at 305 nm. Initial velocity was determined as the rate of decline of absorbance during the first 100 seconds of reaction.
3. […] Between 15-25 concentrations of inhibitor were added and velocity of reaction was measured at each of the concentrations, as described above.
4. Inhibition constants were calculated using the method of Jackson et al. (Adv. in Enzyme Regulation 22: 187 (1984)).

[4] = 0.5M NaCl, 50 mM MES pH 5.6, 2% DMSO, 37° C., 200 μM substrate

SMILES	IC50 [3, 4]	Ki [3, 4]	Ki [3]	IC50 [3]	IC50 [1]	IC50 [2]
CC(C)(C)N(CCO)C(=O)c1ccccc1CCC(O)Cc1ccccc1C(=O)N(CCO)C(C)(C)c1ccccc1 (stereo not shown) [Example 91]	0.274 µM	0.172 µM	–	–	1.95 mg/L (≈ 3.39 µM)	5.28 mg/L (≈ 9.19 µM)
CCC1(N(CCO)C(=O)c2ccccc2CCC(O)Cc2ccc(C)cc2C(=O)N(CCC(O)CO)C(C)(C)c2ccccc2)CCCC1 (stereo not shown) [Example 104]	–	–	0.0096 µM	0.081 µM	0.58 mg/L (≈ 0.862 µM)	0.55 mg/L (≈ 0.817 µM)
CCC1(N(CCO)C(=O)c2ccccc2CCC(O)Cc2ccccc2C(=O)N(CCO)C23CCCCC2CCCC3)CCCC1 (stereo not shown) [Example 97]	0.225 µM	0.038 µM	–	–	1.58 mg/L (≈ 2.5 µM)	> 10 mg/L
CC(C)(C)N(CCO)C(=O)c1ccccc1CCC(=O)C(F)(F)c1ccccc1C(=O)N(CCO)C(C)(C)c1ccccc1 [Example 78]	0.42 µM	0.32 µM	–	–	> 10 mg/L	6.64 mg/L (≈ 10.9 µM)
CC(C)(C)NC(=O)c1c(CCC(O)Cc2ccccc2C(=O)N(Cc2ncc[nH]2)C(C)(C)C)ccc2ccccc12 (stereo not shown) [Example 12]	0.82 µM	0.79 µM	–	–	29.5 mg/L (≈ 53.2 µM)	–
CCC1(N(CCO)C(=O)c2ccccc2CCC(O)Cc2ccc(C)cc2C(=O)N(CC2CCCO2)C(C)(C)c2ccccc2)CCCC1 (stereo not shown) [Example 115]	0.29 µM	0.017 µM	–	–	4.16 mg/L (≈ 6.22 µM)	6.34 mg/L (≈ 9.48 µM)
CCC1(N(CCO)C(=O)c2ccccc2CCC(O)Cc2ccc(C)cc2C(=O)N(CCO)C(C)(C)c2ccc(O)cc2)CCCC1 (stereo not shown) [Example 96]	–	–	0.004 µM	0.063 µM	0.57 mg/L (≈ 0.884 µM)	1.18 mg/L (≈ 1.83 µM)
CC(C)(C)NC(=O)c1cc(Sc2ccccc2)ccc1CCC(O)Cc1ccccc1C(=O)N(CCO)C(C)(C)C (stereo not shown) [Example 73]	0.68 µM	0.717 µM	–	–	> 10 mg/L	> 10 mg/L
CCSc1ccc(CC(O)CCc2ccccc2C(=O)N(CCO)C2(CC)CCCC2)c(C(=O)N(CCO)C(C)(C)c2ccccc2)c1 (stereo not shown) [Example 99]	0.196 µM	0.015 µM	–	–	1.62 mg/L (≈ 2.4 µM)	5.75 mg/L (≈ 8.52 µM)
CC(C)(C)N(CCO)C(=O)c1ccccc1CCC(O)Cc1ccccc1C(=O)N(CCO)C1(C)CCCC1 (stereo not shown) [Example 5]	0.95 µM	0.84 µM	–	–	17.4 mg/L (≈ 32.3 µM)	32 mg/L (≈ 59.4 µM)
CCC1(N(CCO)C(=O)c2ccccc2CCC(O)Cc2ccc(C)cc2C(=O)N(CCOC(=O)[C@@H](N)C(C)C)C(C)(C)c2ccccc2)CCCC1 (stereo partly shown) [Example 114]	0.398 µM	0.23 µM	–	–	2.11 mg/L (≈ 2.9 µM)	1.75 mg/L (≈ 2.4 µM)
CC(C)(C)N(CCO)C(=O)c1ccccc1CCC(O)Cc1ccccc1C(=O)N(CCO)C(C)(C)c1ccc2ccccc2c1 (stereo not shown) [Example 66]	0.25 µM	0.145 µM	–	–	4.53 mg/L (≈ 7.25 µM)	12.7 mg/L (≈ 20.3 µM)
CCC1(N(CCO)C(=O)c2ccccc2CC[C@@H](O)Cc2ccc(C)cc2C(=O)N(CCO)C(C)(C)c2ccccc2)CCCC1 [Example 112]	–	–	–	–	0.54 mg/L (≈ 0.859 µM)	1.47 mg/L (≈ 2.34 µM)
CC(C)(C)NC(=O)c1ccccc1NCC(O)Cc1ccc2ccccc2c1C(=O)NC(C)(C)C (stereo not shown) [Example 51]	120 µM	–	–	–	–	–
CC(C)(C)NC(=O)[C@@H]1C[C@@H]2CCCC[C@@H]2CN1CC(O)CCc1ccccc1C(=O)N(CCO)C(C)(C)C (single isomer, unassigned) [Example 29]	55 µM	–	–	–	–	–
CCC1(N(CCO)C(=O)c2ccccc2CCC(O)Cc2ccc(C)cc2C(=O)N(CCO)C(C)(C)c2ccccc2)CCCC1 (stereo not shown) [Example 18]	–	–	–	–	0.49 mg/L (≈ 0.779 µM)	0.53 mg/L (≈ 0.843 µM)

More lines, in order of falling IC50 [3, 4], values ahead:

IC50 [3, 4]	Ki [3, 4]	Ki [3]	IC50 [3]	SMILES	IC50 [1]	IC50 [2]
0.183 µM	0.088 µM	–	–	CCCC(CC)(CC)N(CCO)C(=O)c1ccccc1CC(O)CCc1ccccc1C(=O)N(CCO)C(C)(C)C (stereo not shown) [Example 92]	2.12 mg/L (≈ 3.73 µM)	5.06 mg/L (≈ 8.9 µM)
0.18 µM	0.021 µM	–	–	Cc1ccc(CC(O)CCc2ccccc2C(=O)N(CCO)C(C)(C)C)c(C(=O)N(CCO)C(C)(C)c2ccccc2)c1 (stereo not shown) [Example 74]	3.69 mg/L (≈ 6.27 µM)	5.54 mg/L (≈ 9.41 µM)
0.144 µM	0.017 µM	–	–	CCc1ccc(CC(O)CCc2ccccc2C(=O)N(CCO)C(C)(C)c2ccccc2)c(C(=O)N(CCO)C(C)(C)c2ccccc2)c1 (stereo not shown) [Example 89]	1 mg/L (≈ 1.5 µM)	1.79 mg/L (≈ 2.69 µM)
0.11 µM	0.007 µM	–	–	CCC1(N(CCO)C(=O)c2ccccc2CCC(O)Cc2ccccc2C(=O)N(CCC(O)CO)C(C)(C)c2ccccc2)CCCC1 (stereo not shown) [Example 100]	0.48 mg/L (≈ 0.729 µM)	1.94 mg/L (≈ 2.94 µM)
0.106 µM	–	0.01 µM	–	CCC1(N(CCO)C(=O)c2ccccc2CCC(O)Cc2ccc(C)cc2C(=O)N(CC(CO)CO)C(C)(C)c2ccccc2)CCCC1 (stereo not shown) [Example 103]	0.64 mg/L (≈ 0.951 µM)	1.15 mg/L (≈ 1.71 µM)
0.104 µM	0.0023 µM	–	–	CCC1(N(CCO)C(=O)c2ccccc2CCC(O)Cc2ccccc2C(=O)N(CCO)C2(c3ccccc3)CCCC2)CCCC1 (stereo not shown) [Example 93]	1.35 mg/L (≈ 2.11 µM)	1.67 mg/L (≈ 2.61 µM)
0.092 µM	0.032 µM	–	–	CCC1(N(CC(CO)CO)C(=O)c2ccccc2CCC(O)Cc2ccc(C)cc2C(=O)N(CC(CO)CO)C(C)(C)c2ccccc2)CCCC1 (stereo not shown) [Example 107]	1.44 mg/L (≈ 2.01 µM)	1.34 mg/L (≈ 1.87 µM)
0.09 µM	0.0015 µM	–	–	CCC1(N(CCO)C(=O)c2ccccc2CCC(O)Cc2ccccc2C(=O)N(CCO)C(CC)(CC)c2ccccc2)CCCC1 (stereo not shown) [Example 95]	0.6 mg/L (≈ 0.933 µM)	1.46 mg/L (≈ 2.27 µM)
0.089 µM	0.012 µM	–	–	Cc1ccc(CC(O)CCc2ccccc2C(=O)N(CCO)C(C)(C)c2ccccc2)c(C(=O)N(CCO)C(C)(C)c2ccccc2)c1 (stereo not shown) [Example 80]	0.53 mg/L (≈ 0.814 µM)	0.68 mg/L (≈ 1.04 µM)
0.086 µM	0.001 µM	–	–	CCC1(N(CCO)C(=O)c2ccccc2CCC(O)Cc2ccc(Cl)cc2C(=O)N(CCO)C(C)(C)c2ccccc2)CCCC1 (stereo not shown) [Example 105]	0.47 mg/L (≈ 0.724 µM)	0.49 mg/L (≈ 0.755 µM)
0.082 µM	0.031 µM	–	–	CC(C)(c1ccccc1)N(CCO)C(=O)c1ccccc1CCC(O)Cc1ccccc1C(=O)N(CCO)C(C)(C)c1ccccc1 (stereo not shown) [Example 65]	0.89 mg/L (≈ 1.4 µM)	1.76 mg/L (≈ 2.76 µM)
0.068 µM	0.0054 µM	–	–	CCC1(N(CCOC(C)=O)C(=O)c2ccccc2CCC(O)Cc2ccc(C)cc2C(=O)N(CCOC(C)=O)C(C)(C)c2ccccc2)CCCC1 (stereo not shown) [Example 110]	0.69 mg/L (≈ 0.968 µM)	1.72 mg/L (≈ 2.41 µM)
0.067 µM	0.0039 µM	–	–	CCC1(N(CC2COC(C)(C)OC2)C(=O)c2ccccc2CCC(O)Cc2ccc(C)cc2C(=O)N(CC2COC(C)(C)OC2)C(C)(C)c2ccccc2)CCCC1 (stereo not shown) [Example 106]	3.91 mg/L (≈ 4.91 µM)	1.7 mg/L (≈ 2.13 µM)
0.052 µM	0.008 µM	–	–	CCC1(N(CCO)C(=O)c2ccccc2CCC(O)Cc2ccc(C)cc2C(=O)N(CCO)C(C)(C)c2ccc(OCc3ccc[n+]([O-])c3)cc2)CCCC1 (stereo not shown) [Example 111]	1.03 mg/L (≈ 1.37 µM)	1.81 mg/L (≈ 2.41 µM)
